Experimental data reported in paper PMC9917201, “Enhanced Antibacterial Activity of Substituted Derivatives of NCR169C Peptide” (International Journal of Molecular Sciences, 2023).
In brackets after ≈: the same amount, converted by molar mass. Where two headings read alike, the source gives them in different places. Non-standard residues stand in square brackets, D forms with d. Residues, ends and D or L forms follow the SMILES beside them. ξ: configuration not given here. ξTrp(5-OMe) = COc1ccc2[nH]cc(CC(N)C(=O)O)c2c1; ξTrp(5-Me) = Cc1ccc2[nH]cc(CC(N)C(=O)O)c2c1

Experiments:
Format in all cases: cell-based
[1] = test system: Pseudomonas aeruginosa (ATCC 27853); conditions: ATCC 27853, 3 h, pH 7.4
From the text: (§1) The bacterial strains for the antimicrobial assay were obtained from the ATCC (American Type Culture Collection, Manassas, VA, USA) and NCTC (National Collection of Type Cultures, Salisbury, UK). Gram-negative strains were Pseudomonas aeruginosa (ATCC 27853), Escherichia coli (ATCC 8739, ATCC 35218, and ATCC 25922), Salmonella enterica (ATCC 13076), Klebsiella pneumoniae (NCTC 13440), Acinetobacter baumannii (ATCC 17978) and the Gram-positive strains were Enterococcus faecalis (ATCC 29212), Listeria monocytogenes (ATCC 19111), and Staphylococcus aureus (HNCMO112011 and ATCC 25923).
(§2) Determination of antibacterial activity for the peptides was carried out by utilizing a minimum bactericidal concentration (MBC) bioassay. Synthesized peptides were dissolved in sterile water and used from 25 to 0.125 μM in 2-fold dilution series and incubated with ~10^7 log phase bacteria in Potassium-Phosphate Buffer (PPB, pH: 7.4) for three hours as described earlier. After that, 5 μl of each sample was placed on LB agar and the growth of bacteria was monitored after overnight incubation at 37 °C. The lowest concentration of the antimicrobial agents that completely eliminated viable bacteria was considered the minimal bactericidal concentration (MBC).

[2] = test system: Acinetobacter baumannii (ATCC 17978)
From the text: as §1, §2

[3] = test system: Escherichia coli (ATCC 8739); conditions: ATCC 8739, 3 h, pH 7.4
From the text: as §1, §2

[4] = test system: Listeria monocytogenes (ATCC 19111); conditions: ATCC 19111, 3 h, pH 7.4
From the text: as §1, §2

[5] = test system: Enterococcus faecalis (ATCC 29212); conditions: ATCC 29212, 3 h, pH 7.4
From the text: as §1, §2

[6] = test system: Staphylococcus aureus (HNCMO112011); conditions: HNCMO112011, 3 h, pH 7.4
From the text: as §1, §2

[7] = test system: Salmonella enterica (ATCC 13076); conditions: ATCC 13076, 3 h, pH 7.4
From the text: as §1, §2

[8] = test system: Klebsiella pneumoniae (NCTC 13440); conditions: NCTC 13440, 3 h, pH 7.4
From the text: as §1, §2

[9] = test system: tested bacteria (ESKAPE pathogens, Listeria monocytogenes, Salmonella enterica); conditions: 3 h, pH 7.4
From the text: as §1, §2

[10] = Acinetobacter baumannii ATCC 17978, ~10^7 log phase bacteria, 3 h in PPB pH 7.4, peptide 25 to 0.125 μM 2-fold series, plated on LB agar, overnight 37 °C

SMILES	Minimal bactericidal concentration (MBC) P. a. [1] [µM]	Minimal bactericidal concentration (MBC) A. b. [2, 10] [µM]	Minimal bactericidal concentration (MBC) E. c. [3] [µM]	Minimal bactericidal concentration (MBC) L. m. [4] [µM]	Minimal bactericidal concentration (MBC) E. f. [5] [µM]	Minimal bactericidal concentration (MBC) S. a. [6] [µM]	Minimal bactericidal concentration (MBC) S. e. [7] [µM]	Minimal bactericidal concentration (MBC) K. p. [8] [µM]	Minimal bactericidal concentration (MBC) A. b. ([2]; ATCC 17978, 3 h, pH 7.4) [µM]	MBC against most or all of the tested bacteria [9] [µM]
CC[C@H](C)[C@H](NC(=O)[C@H](CCCCN)NC(=O)[C@H](Cc1ccccc1)NC(=O)[C@H](CC(C)C)NC(=O)[C@@H]1CCCN1C(=O)[C@H](CCCCN)NC(=O)[C@H](CCCCN)NC(=O)[C@H](CO)NC(=O)[C@@H](N)CCCCN)C(=O)NC(Cc1c[nH]c2ccc(C)cc12)C(=O)N[C@@H](CCCCN)C(=O)N[C@@H](CO)C(=O)N[C@H](C(=O)N[C@@H](CCC(=O)O)C(=O)N[C@@H](CC(N)=O)C(=O)N[C@H](C(=O)N[C@@H](CO)C(=O)N[C@H](C(=O)N[C@@H](CC(C)C)C(=O)N[C@@H](Cc1c[nH]c2ccccc12)C(=O)N[C@@H](Cc1ccc(O)cc1)C(=O)N[C@@H](CCCCN)C(N)=O)C(C)C)C(C)C)C(C)C (stereo partly drawn) [NCR169C17–38C12,17/S-10W^5-Me II] (H-KSKKPLFKI[ξTrp(5-Me)]KSVENVSVLWYK-NH2; N-terminus assumed)	3.1 (≈ 8.44 µg/mL)	3.1 (≈ 8.44 µg/mL)	3.1 (≈ 8.44 µg/mL)	3.1 (≈ 8.44 µg/mL)	3.1 (≈ 8.44 µg/mL)	3.1 (≈ 8.44 µg/mL)	3.1 (≈ 8.44 µg/mL)	6.3 (≈ 17.1 µg/mL)	–	–
CC[C@H](C)[C@H](NC(=O)[C@H](CCCCN)NC(=O)[C@H](Cc1ccccc1)NC(=O)[C@H](CC(C)C)NC(=O)[C@@H]1CCCN1C(=O)[C@H](CCCCN)NC(=O)[C@H](CCCCN)NC(=O)[C@H](CO)NC(=O)[C@@H](N)CCCCN)C(=O)NC(Cc1c[nH]c2ccc(C)cc12)C(=O)N[C@@H](CCCCN)C(=O)N[C@@H](CO)C(=O)N[C@H](C(=O)N[C@@H](CCC(=O)O)C(=O)N[C@@H](CC(N)=O)C(=O)N[C@H](C(=O)N[C@@H](CO)C(=O)N[C@H](C(=O)N[C@@H](CC(C)C)C(=O)N[C@@H](Cc1c[nH]c2ccccc12)C(=O)N[C@@H](Cc1ccc(O)cc1)C(=O)N[C@@H](CCCCN)C(N)=O)C(C)C)C(C)C)C(C)C (stereo partly drawn) [NCR169C17–38C12,17/S-10W^5-Me I] (H-KSKKPLFKI[ξTrp(5-Me)]KSVENVSVLWYK-NH2; N-terminus assumed)	3.1 (≈ 8.44 µg/mL)	6.3 (≈ 17.1 µg/mL)	3.1 (≈ 8.44 µg/mL)	3.1 (≈ 8.44 µg/mL)	3.1 (≈ 8.44 µg/mL)	3.1 (≈ 8.44 µg/mL)	3.1 (≈ 8.44 µg/mL)	6.3 (≈ 17.1 µg/mL)	–	–
CC[C@H](C)[C@H](NC(=O)[C@H](CCCCN)NC(=O)[C@H](Cc1ccccc1)NC(=O)[C@H](CC(C)C)NC(=O)[C@@H]1CCCN1C(=O)[C@H](CCCCN)NC(=O)[C@H](CCCCN)NC(=O)[C@H](CO)NC(=O)[C@@H](N)CCCCN)C(=O)NC(Cc1c[nH]c2ccc(OC)cc12)C(=O)N[C@@H](CCCCN)C(=O)N[C@@H](CO)C(=O)N[C@H](C(=O)N[C@@H](CCC(=O)O)C(=O)N[C@@H](CC(N)=O)C(=O)N[C@H](C(=O)N[C@@H](CO)C(=O)N[C@H](C(=O)N[C@@H](CC(C)C)C(=O)N[C@@H](Cc1c[nH]c2ccccc12)C(=O)N[C@@H](Cc1ccc(O)cc1)C(=O)N[C@@H](CCCCN)C(N)=O)C(C)C)C(C)C)C(C)C (stereo partly drawn) [NCR169C17–38C12,17/S-10W^5-MeO I] (H-KSKKPLFKI[ξTrp(5-OMe)]KSVENVSVLWYK-NH2; N-terminus assumed)	–	–	3.1 (≈ 8.49 µg/mL)	1.6 (≈ 4.38 µg/mL)	1.6 (≈ 4.38 µg/mL)	1.6 (≈ 4.38 µg/mL)	1.6 (≈ 4.38 µg/mL)	1.6 (≈ 4.38 µg/mL)	1.6 (≈ 4.38 µg/mL)	1.6
